The source of these data is ChEMBL document CHEMBL3352015, “The binding mechanisms of plasma protein to active compounds in Alismaorientale rhizomes (Alismatis Rhizoma)” (Bioorg Med Chem Lett, 2014).

Molecules are shown by their SMILES.

Format in all cases: ADME, cell-free
A short description of data set [1]: Plasma protein binding in rat at 408 ug/ml by ultrafiltration method. The following applies: read-out: PPB (converted).
Data set [2] can be described thus: Plasma protein binding in rat at 816 ug/ml by ultrafiltration method. The following applies: read-out: PPB (converted).
Data set [3] in a line: Plasma protein binding in rat at 1020 ug/ml by ultrafiltration method. The following applies: read-out: PPB (converted).
Data set [4] can be described thus: Binding affinity to Hb in rat plasma by SDS-PAGE analysis.
The nature of data set [5]: Binding affinity to Hb in rat plasma at 2.5 x 10' -6 to 15 x 10' -6 mmol/l by fluorescence emission spectroscopy.
Data set [6] is described as follows: Binding affinity to Hb in rat plasma at 1.5 x 10' -5 to 2.8 x 10' -5 mmol/l by CD spectroscopy.

For `CC(=O)O[C@H]([C@@H](O)C[C@@H](C)C1=C2C[C@H](O)[C@H]3[C@@]4(C)CCC(=O)C(C)(C)[C@@H]4CC[C@]3(C)[C@@]2(C)CC1)C(C)(C)O`, the fraction unbound at 408 ug/ml in data set [1] was 0.3. In addition, in data set [2], the fraction unbound at 816 ug/ml was 0.29. The fraction unbound at 1020 ug/ml in data set [3] is 0.279. Also, the outcome in data set [4], in data set [5] and in data set [6] was Active.
